Source: ChEMBL document CHEMBL1143050, “QSAR study on permeability of hydrophobic compounds with artificial membranes” (Bioorg Med Chem, 2007)
Residues, ends and D or L forms follow the SMILES beside them.

Tests used:
[1] = Permeability coefficient through artificial membrane in presence of unstirred water layer by PAMPA
[2] = Partition coefficient, log P of the compound; conditions: octanol/water
[3] = Permeability coefficient through artificial membrane in presence of stirred water layer
Caco-2 [4] = experiment: Permeability from apical to basolateral side of the Caco-2 cell membrane; type: ADME, cell-based; conditions: human
Caco-2 [5] = experiment: Permeability from basolateral to apical side of the Caco-2 cell membrane; type: ADME, cell-based; conditions: human

| Structure (SMILES) | LogP app [1] | logP [2] | Papp ([3]; PAMPA) | LogP app ([3]; artificial membrane) | Papp [1] | LogP app (Caco-2 [4]) | LogP app (Caco-2 [5]) | LogP app ([3]; PAMPA) |
| --- | --- | --- | --- | --- | --- | --- | --- | --- |
| O=C1N[C@@H](Cc2c[nH]c3ccccc23)C(=O)N[C@H]1Cc1c[nH]c2ccccc12 | -5.04 | 2.04 | – | – | – | – | – | – |
| O=C1CNC(=O)[C@H](Cc2c[nH]c3ccccc23)N1 | -6.02 | 0.07 | – | – | – | – | – | – |
| NC(=O)[C@@H](N)Cc1c[nH]c2ccccc12 | -5.56 | 0.3 | – | – | – | – | – | – |
| CC(=O)N[C@@H](Cc1c[nH]c2ccccc12)C(=O)N[C@H](C(N)=O)C(C)C | -6.18 | 0.73 | – | – | – | – | – | – |
| CCc1ccc(C)nc1 | -5.55 | 3.3 | 129 nm/s | -4.89 | 28.5 nm/s | – | – | – |
| CC(=O)N[C@H](Cc1c[nH]c2ccccc12)C(=O)N[C@H](C(N)=O)C(C)C | -6.14 | 0.65 | – | – | – | – | – | – |
| Cc1ccc(O)c(C)c1 | -4.61 | – | 2630 nm/s | -3.58 | 243 nm/s | – | – | – |
| O=[N+]([O-])c1cc(Cl)ccc1Cl | -5.11 | 3.03 | 806 nm/s | -4.09 | 77.8 nm/s | – | – | – |
| O=C(O)c1c[nH]c2ccccc12 | -6.1 | – | – | – | – | – | – | – |
| Nc1ccccc1Cl | -4.48 | – | 2460 nm/s | -3.63 | 331 nm/s | – | – | – |
| CC(=O)N[C@@H](Cc1ccc(O)cc1)C(=O)N[C@@H](CC(C)C)C(N)=O (Ac-Tyr-Leu-NH2) | -6.54 | 0.32 | – | – | – | – | – | – |
| CC(=O)N[C@@H](Cc1ccc(O)cc1)C(=O)N[C@@H](Cc1ccccc1)C(N)=O (Ac-Tyr-Phe-NH2) | – | 0.54 | – | – | – | – | – | – |
| NCC(=O)N[C@@H](Cc1c[nH]c2ccccc12)C(N)=O (H-Gly-Trp-NH2) | -6.38 | -0.48 | – | – | – | – | – | – |
| NC(=O)[C@H](Cc1c[nH]c2ccccc12)NC(=O)[C@@H](N)Cc1ccccc1 (H-Phe-Trp-NH2) | -5.22 | 1.38 | – | – | – | – | – | – |
| CC(C)[C@H](NC(=O)[C@H](C)NC(=O)[C@@H](N)Cc1c[nH]c2ccccc12)C(N)=O (H-Trp-Ala-Val-NH2) | -6.62 | 0.4 | – | – | – | – | – | – |
| Oc1ccc(Cl)cc1Cl [2,4-DICHLOROPHENOL] | -4.93 | – | 1270 nm/s | -3.9 | 119 nm/s | – | – | – |
| Oc1ccccc1Cl [2-CHLOROPHENOL] | -4.3 | – | 152 nm/s | -4.82 | 500 nm/s | – | – | – |
| Nc1ccccc1[N+](=O)[O-] [2-NITROANILINE] | -4.54 | – | 2290 nm/s | -3.64 | 286 nm/s | – | – | – |
| Nc1cccc(Cl)c1 [3-CHLOROANILINE] | -4.44 | – | 2610 nm/s | -3.58 | 367 nm/s | – | – | – |
| O=[N+]([O-])c1cccc(O)c1 [3-NITRO-PHENOL] | -4.77 | – | 694 nm/s | -4.16 | 171 nm/s | – | – | – |
| Nc1cccc([N+](=O)[O-])c1 [3-NITROANILINE] | -4.67 | – | 1960 nm/s | -3.7 | 216 nm/s | – | – | – |
| Nc1ccc(Cl)cc1 [4-CHLOROANILINE] | -4.38 | 1.88 | 2580 nm/s | -3.59 | 418 nm/s | – | – | – |

| Structure (SMILES) | LogP app [1] | logP [2] | Papp ([3]; PAMPA) | LogP app ([3]; artificial membrane) | Papp [1] | LogP app (Caco-2 [4]) | LogP app (Caco-2 [5]) | LogP app ([3]; PAMPA) |
| --- | --- | --- | --- | --- | --- | --- | --- | --- |
| N#Cc1ccc(O)cc1 [4-CYANOPHENOL] | -4.77 | – | 223 nm/s | -4.65 | 170 nm/s | – | – | – |
| CC(=O)Nc1ccc(O)cc1 [ACETAMINOPHEN] | -6.04 | – | 22.2 nm/s | -5.65 | – | – | – | – |
| CC(=O)N[C@@H](Cc1c[nH]c2ccccc12)C(N)=O [ACETYLTRYPTOPHANAMIDE] | -5.72 | 0.42 | – | – | – | – | – | – |
| Nc1ccccc1 [ANILINE] | -4.12 | – | 3060 nm/s | -3.51 | 759 nm/s | – | – | – |
| Cc1cc(=O)n(-c2ccccc2)n1C [ANTIPYRINE] | -5.54 | – | – | – | – | – | – | – |
| CCNc1nc(Cl)nc(NC(C)C)n1 [ATRAZINE] | -4.53 | – | 721 nm/s | -4.14 | 292 nm/s | -4.39 | -4.45 | – |
| c1ccc(-c2ccccc2)cc1 [BIPHENYL] | -5.95 | 4.01 | 533 nm/s | – | 11.2 nm/s | – | – | -4.27 |
| O=C(N[C@H](CO)[C@H](O)c1ccc([N+](=O)[O-])cc1)C(Cl)Cl [CHLORAMPHENICOL] | – | – | 57.5 nm/s | – | – | – | – | – |
| Cc1cc(C)cc(C(=O)N(NC(=O)c2ccc3c(c2C)CCCO3)C(C)(C)C)c1 [CHROMAFENOZIDE] | -4.78 | 2.7 | – | – | 167 nm/s | – | – | – |
| Clc1cccc(Cl)c1N=C1NCCN1 [CLONIDINE] | -4.98 | 1.43 | 114 nm/s | – | – | – | – | -4.94 |
| C[C@]12C[C@H](O)[C@H]3[C@@H](CCC4=CC(=O)CC[C@@]43C)[C@@H]1CC[C@@H]2C(=O)CO [CORTICOSTERONE] | -4.77 | – | 342 nm/s | -4.47 | – | – | – | – |
| C[C@@H]1C[C@H]2[C@@H]3CCC4=CC(=O)C=C[C@]4(C)[C@@]3(F)[C@@H](O)C[C@]2(C)[C@@]1(O)C(=O)CO [DEXAMETHASONE] | -5.37 | 2.01 | 113 nm/s | -4.95 | – | – | – | – |
| CCOC(=O)c1ccccc1C(=O)OCC [DIETHYL PHTHALATE] | -4.82 | – | – | – | 150 nm/s | – | – | – |
| COC(=O)c1ccccc1C(=O)OC [DIMETHYL PHTHALATE] | -4.36 | 1.56 | 1580 nm/s | -3.8 | 433 nm/s | – | – | – |
| O=C(O)c1ccccc1Nc1ccccc1 [FENAMIC ACID] | -4.86 | – | 243 nm/s | -4.61 | 138 nm/s | – | – | – |
| CCC(C)c1ccccc1OC(=O)NC (stereo not given) [FENOBUCARB] | -4.91 | – | 1310 nm/s | -3.88 | 124 nm/s | – | – | – |
| CC(C)(C)N(NC(=O)c1ccc(Cl)cc1)C(=O)c1ccccc1 [HALOFENOZIDE] | -4.76 | – | – | – | 172 nm/s | – | – | – |
| Oc1ccc(O)cc1 [HYDROQUINONE] | -5.14 | – | 46 nm/s | – | 73.1 nm/s | – | – | -5.34 |
| O=[N+]([O-])NC1=NCCN1Cc1ccc(Cl)nc1 [IMIDACLOPRID] | -5.34 | 0.59 | 52.1 nm/s | -5.31 | 45.2 nm/s | – | – | – |
| O=C(O)Cc1c[nH]c2ccccc12 [INDOLE-3-ACETIC ACID] | -6.4 | – | – | – | – | – | – | – |
| O=C(O)CCc1c[nH]c2ccccc12 [INDOLYLPROPIONIC ACID] | -5.68 | – | – | – | – | – | – | – |
| CC(CCc1ccccc1)NCC(O)c1ccc(O)c(C(N)=O)c1 (stereo not given) [LABETALOL] | -5.18 | – | 56.4 nm/s | -5.25 | – | – | – | – |

| Structure (SMILES) | LogP app [1] | logP [2] | Papp ([3]; PAMPA) | LogP app ([3]; artificial membrane) | Papp [1] | LogP app (Caco-2 [4]) | LogP app (Caco-2 [5]) | LogP app ([3]; PAMPA) |
| --- | --- | --- | --- | --- | --- | --- | --- | --- |
| COc1nn(CSP(=S)(OC)OC)c(=O)s1 [METHIDATHION] | -4.97 | 2.5 | 469 nm/s | -4.33 | 108 nm/s | – | -4.42 | – |
| COc1cccc(C(=O)NN(C(=O)c2cc(C)cc(C)c2)C(C)(C)C)c1C [METHOXYFENOZIDE] | -4.72 | – | – | – | 191 nm/s | -4.33 | -4.38 | – |
| CC(C)(C)NCC(O)COc1cccc2c1C[C@H](O)[C@H](O)C2 (stereo not given in full) [NADOLOL] | -6.15 | 0.71 | 327 nm/s | -4.49 | – | – | – | – |
| O=[N+]([O-])c1ccccc1O [NITROPHENOLATE] | -4.24 | – | 2160 nm/s | -3.36 | 570 nm/s | – | – | – |
| CCn1cc(C(=O)O)c(=O)c2cc(F)c(N3CCNCC3)cc21 [NORFLOXACIN] | -6.71 | -1.03 | 1.8 nm/s | – | – | – | – | -6.74 |
| Cc1ccccc1O [ORTHOCRESOL] | -4.28 | – | 2950 nm/s | -3.53 | 521 nm/s | – | – | – |
| C=CCOc1ccccc1OCC(O)CNC(C)C (stereo not given) [OXPRENOLOL] | -4.83 | 2.1 | 93.6 nm/s | – | – | – | – | -5.03 |
| Oc1ccccc1 [PHENOL] | -4.33 | – | – | – | 470 nm/s | – | – | -3.83 |
| O=C1NC(=O)C(c2ccccc2)(c2ccccc2)N1 [PHENYTOIN] | -4.41 | 2.26 | 119 nm/s | -4.93 | – | – | – | – |
| CC(C)NCC(O)COc1cccc2[nH]ccc12 (stereo not given) [PINDOLOL] | -5.31 | 1.75 | 14.2 nm/s | – | – | – | – | -5.85 |
| CN1CCN(CC(=O)N2c3ccccc3C(=O)Nc3cccnc32)CC1 [PIRENZEPINE] | -6.05 | 0.1 | 8.2 nm/s | -6.09 | – | – | – | – |
| CC(=O)Nc1ccc(OCC(O)CNC(C)C)cc1 (stereo not given) [PRACTOLOL] | -5.98 | – | 3.7 nm/s | -6.43 | – | – | – | – |
| CNC(=C[N+](=O)[O-])NCCSCc1ccc(CN(C)C)o1 [RANITIDINE] | -6.05 | – | 30 nm/s | – | – | – | – | -5.52 |
| CC(C)(C)N(NC(=O)c1ccccc1)C(=O)c1ccccc1 [RH-5849] | -4.78 | – | – | – | 165 nm/s | -4.34 | -4.42 | – |
| COP1(=S)OCc2ccccc2O1 (stereo not given) [SALITHION] | -5.03 | – | 439 nm/s | -4.36 | 93.9 nm/s | – | – | – |
| CCc1ccc(C(=O)NN(C(=O)c2cc(C)cc(C)c2)C(C)(C)C)cc1 [TEBUFENOZIDE] | -4.8 | – | – | – | 157 nm/s | -4.44 | -4.39 | – |
| Cn1c(=O)c2[nH]cnc2n(C)c1=O.O [THEOPHYLLINE] | -5.31 | – | – | – | – | – | – | – |
| CCN(CC)C(=O)SCc1ccc(Cl)cc1 [THIOBENCARB] | -4.69 | – | 929 nm/s | -4.03 | 206 nm/s | – | – | – |
| NCCc1c[nH]c2ccccc12 [TRYPTAMINE] | -5.27 | 1.35 | – | – | – | – | – | – |
| OCCc1c[nH]c2ccccc12 [TRYPTOPHOL] | -4.72 | 1.54 | – | – | – | – | – | – |
